According to patent US20150105252A1, “SUBSTITUTED PYRAZOLES AS HERBICIDES” (E I DU PONT DE NEMOURS AND COMPANY, priority 2013, published 2015):

Key:
velvetleaf [1] = assay: Test A preemergence; assay type: in vivo, Abutilon theophrasti; settings: preemergence; for Velvetleaf plant response rating (0 to 100 scale): 125 g ai/ha, visual injury approx. 10 days after treatment
In short: (§1)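 Visual injury rating, 0–100 (0 no effect, 100 complete control), vs untreated controls ~10 days after treatment in greenhouse. Pre: directed soil spray on seeded loam/sand. Post: 2–10 cm plants, 1–2 leaf stage. Formulation: non-phytotoxic solvent mix + surfactant.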

barnyardgrass [2] = assay: Test B flood; assay type: in vivo, Echinochloa crus-galli; settings: 250 g ai/ha, visual rating on 0 to 100 scale (0 no effect, 100 complete control), 13 to 15 days
In short: (§2)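 Plants were grown to the 2-leaf stage and pots flooded to 3 cm above soil. Compounds were applied directly into the paddy water, with depth kept for the test. After 13–15 days in greenhouse, response was rated visually against controls on a 0 (no effect) to 100 (complete control) scale.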

barnyardgrass [3] = assay: Test A postemergence; assay type: in vivo, Echinochloa crus-galli
In short: as §1

pigweed [4] = assay: Test A preemergence; assay type: in vivo, Amaranthus retroflexus; settings: preemergence; for Pigweed plant response rating (0 to 100 scale): 125 g ai/ha, visual injury approx. 10 days after treatment
In short: as §1

wheat [5] = assay: Test A postemergence; assay type: in vivo, Triticum aestivum
In short: as §1

velvetleaf [6] = assay: Test A postemergence; assay type: in vivo, Abutilon theophrasti
In short: as §1

ducksalad [7] = assay: Test C flooded paddy test; assay type: in vivo, Heteranthera limosa; settings: Flood
In short: (§3)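 Test compounds are applied straight into paddy water held 3 cm above the soil surface, with that flood maintained for the whole test. After 13 to 15 days in the greenhouse, each species is scored visually relative to controls.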

foxtail, giant [8] = assay: Test A postemergence; assay type: in vivo, Setaria faberii
In short: as §1

morningglory [9] = assay: Test A postemergence; assay type: in vivo, Ipomoea spp.
In short: as §1

barnyardgrass [10] = assay: Test C flooded paddy test; assay type: in vivo, Echinochloa crus-galli; settings: Flood
In short: as §3

crabgrass, large [11] = assay: Test A preemergence; assay type: in vivo, Digitaria sanguinalis; settings: preemergence; for Crabgrass, Large plant response rating (0 to 100 scale): 125 g ai/ha, visual injury approx. 10 days after treatment; for Crabgrass, Large plant response rating: 500 g ai/ha, visual injury after approx. 10 days, 0 to 100 scale (0 no effect, 100 complete control)
In short: as §1

rice [12] = assay: Test B flood; assay type: in vivo, Oryza sativa; settings: 250 g ai/ha, visual rating on 0 to 100 scale (0 no effect, 100 complete control), 13 to 15 days
In short: as §2

corn [13] = assay: Test A postemergence; assay type: in vivo, Zea mays
In short: as §1

pigweed [14] = assay: Test A postemergence; assay type: in vivo, Amaranthus retroflexus
In short: as §1

wheat [15] = assay: Test A preemergence; assay type: in vivo, Triticum aestivum; settings: preemergence; for Wheat plant response rating (0 to 100 scale): 125 g ai/ha, visual injury approx. 10 days after treatment
In short: as §1

crabgrass, large [16] = assay: Test A postemergence; assay type: in vivo, Digitaria sanguinalis
In short: as §1

foxtail, giant [17] = assay: Test A preemergence; assay type: in vivo, Setaria faberii; settings: preemergence; for Foxtail, Giant plant response rating (0 to 100 scale): 125 g ai/ha, visual injury approx. 10 days after treatment; for Foxtail, Giant plant response rating: 500 g ai/ha, visual injury after approx. 10 days, 0 to 100 scale (0 no effect, 100 complete control)
In short: as §1

sedge, umbrella [18] = assay: Test C flooded paddy test; assay type: in vivo, Cyperus difformis; settings: Flood
In short: as §3

sedge, umbrella [19] = assay: Test B flood; assay type: in vivo, Cyperus difformis; settings: 250 g ai/ha, visual rating on 0 to 100 scale (0 no effect, 100 complete control), 13 to 15 days
In short: as §2

morningglory [20] = assay: Test A preemergence; assay type: in vivo, Ipomoea spp.; settings: preemergence; for Morningglory plant response rating (0 to 100 scale): 125 g ai/ha, visual injury approx. 10 days after treatment
In short: as §1

corn [21] = assay: Test A preemergence; assay type: in vivo, Zea mays; settings: preemergence; for Corn plant response rating (0 to 100 scale): 125 g ai/ha, visual injury approx. 10 days after treatment; for Corn plant response rating: 500 g ai/ha, visual injury after approx. 10 days, 0 to 100 scale (0 no effect, 100 complete control)
In short: as §1

rice [22] = assay: Test C flooded paddy test; assay type: in vivo, Oryza sativa; settings: Flood
In short: as §3

ducksalad [23] = assay: Test B flood; assay type: in vivo, Heteranthera limosa; settings: 250 g ai/ha, visual rating on 0 to 100 scale (0 no effect, 100 complete control), 13 to 15 days
In short: as §2

barnyardgrass [24] = assay: Test A preemergence; assay type: in vivo, Echinochloa crus-galli; settings: preemergence
In short: as §1

[25] = 500 g ai/ha, visual injury after approx. 10 days, 0 to 100 scale (0 no effect, 100 complete control)
[26] = Postemergence, 500 g ai/ha, 0 to 100 scale (0 no effect, 100 complete control)
[27] = postemergence, 125 g ai/ha, about 10 days, visual rating on 0 to 100 scale (0 no effect, 100 complete control)
[28] = 31 g ai/ha, scale 0 to 100 (0 no effect, 100 complete control)
[29] = 62 g ai/ha, scale 0 to 100 (0 no effect, 100 complete control)
[30] = Postemergence, 125 g ai/ha, 0 to 100 scale, 0 no effect, 100 complete control
[31] = 125 g ai/ha, scale 0 to 100 (0 no effect, 100 complete control)

CCCNC(=O)c1cc(COC)n(Cc2ccnc(C(F)(F)F)c2)n1 [Compound 168]
Velvetleaf plant response rating (0 to 100 scale) (velvetleaf [1]): 20 | Velvetleaf plant response rating (velvetleaf [1]; [25]): 100 | Plant response rating, Barnyardgrass (barnyardgrass [2]): 20 | Barnyardgrass plant response rating (barnyardgrass [3]; [26]): 90 | Barnyardgrass plant response rating (barnyardgrass [3]; [27]): 50 | Pigweed plant response rating (0 to 100 scale) (pigweed [4]): 100 | Pigweed plant response rating (pigweed [4]; [25]): 100 | Wheat plant response rating (wheat [5]; [26]): 40 | Wheat plant response rating (wheat [5]; [27]): 0 | Velvetleaf plant response rating (velvetleaf [6]; [26]): 70 | Velvetleaf plant response rating (velvetleaf [6]; [27]): 40 | Plant response rating, Ducksalad (ducksalad [7]; [28]): 0 | Plant response rating, Ducksalad (ducksalad [7]; [29]): 50 | Plant response rating, Ducksalad (ducksalad [7]; 125 g ai/ha, scale 0 to 100): 70 | Foxtail, Giant plant response rating (foxtail, giant [8]; [26]): 90 | Foxtail, Giant plant response rating (foxtail, giant [8]; [27]): 60 | Morningglory plant response rating (morningglory [9]; [26]): 100 | Morningglory plant response rating (morningglory [9]; [27]): 70 | Plant response rating, Barnyardgrass (barnyardgrass [10]; [28]): 0 | Plant response rating, Barnyardgrass (barnyardgrass [10]; [29]): 0 | Plant response rating, Barnyardgrass (barnyardgrass [10]; 125 g ai/ha, scale 0 to 100): 0 | Crabgrass, Large plant response rating (0 to 100 scale) (crabgrass, large [11]): 100 | Crabgrass, Large plant response rating (crabgrass, large [11]): 100 | Plant response rating, Rice (rice [12]): 20 | Corn plant response rating (corn [13]; [26]): 80 | Corn plant response rating (corn [13]; [27]): 20 | Pigweed plant response rating (pigweed [14]; [26]): 100 | Pigweed plant response rating (pigweed [14]; [27]): 80 | Wheat plant response rating (0 to 100 scale) (wheat [15]): 10 | Wheat plant response rating (wheat [15]; [25]): 70 | Crabgrass, Large plant response rating (crabgrass, large [16]; [26]): 90 | Crabgrass, Large plant response rating (crabgrass, large [16]; [27]): 60 | Foxtail, Giant plant response rating (0 to 100 scale) (foxtail, giant [17]): 90 | Foxtail, Giant plant response rating (foxtail, giant [17]): 100 | Plant response rating, Sedge, Umbrella (sedge, umbrella [18]; [28]): 0 | Plant response rating, Sedge, Umbrella (sedge, umbrella [18]; [29]): 50 | Plant response rating, Sedge, Umbrella (sedge, umbrella [18]; 125 g ai/ha, scale 0 to 100): 80 | Plant response rating, Sedge, Umbrella (sedge, umbrella [19]): 90 | Morningglory plant response rating (0 to 100 scale) (morningglory [20]): 80 | Morningglory plant response rating (morningglory [20]; [25]): 100 | Corn plant response rating (0 to 100 scale) (corn [21]): 0 | Corn plant response rating (corn [21]): 20 | Plant response rating, Rice (rice [22]; [28]): 0 | Plant response rating, Rice (rice [22]; [29]): 0 | Plant response rating, Rice (rice [22]; 125 g ai/ha, scale 0 to 100): 0 | Plant response rating, Ducksalad (ducksalad [23]): 90 | Barnyardgrass plant response rating (barnyardgrass [24]; 125 g ai/ha, visual injury, 0 to 100 scale, approx. 10 days): 20 | Barnyardgrass plant response rating (barnyardgrass [24]; [25]): 100

CCc1cc(C(=O)NC)nn1Cc1ccnc(C(F)(F)F)c1 [Compound 204]
Velvetleaf plant response rating (0 to 100 scale) (velvetleaf [1]): 10 | Plant response rating, Barnyardgrass (barnyardgrass [2]): 0 | Barnyardgrass plant response rating (barnyardgrass [3]; [26]): 50 | Barnyardgrass plant response rating (barnyardgrass [3]; [27]): 10 | Pigweed plant response rating (0 to 100 scale) (pigweed [4]): 100 | Wheat plant response rating (wheat [5]; [30]): 0 | Wheat plant response rating (wheat [5]; [26]): 10 | Velvetleaf plant response rating (velvetleaf [6]; [30]): 40 | Velvetleaf plant response rating (velvetleaf [6]; [26]): 50 | Plant response rating, Ducksalad (ducksalad [7]; [28]): 0 | Plant response rating, Ducksalad (ducksalad [7]; [29]): 0 | Plant response rating, Ducksalad (ducksalad [7]; [31]): 50 | Plant response rating, Ducksalad (ducksalad [7]; 250 g ai/ha, scale 0 to 100): 90 | Foxtail, Giant plant response rating (foxtail, giant [8]; [26]): 70 | Foxtail, Giant plant response rating (foxtail, giant [8]; [27]): 10 | Morningglory plant response rating (morningglory [9]; [30]): 80 | Morningglory plant response rating (morningglory [9]; [26]): 90 | Plant response rating, Barnyardgrass (barnyardgrass [10]; [28]): 0 | Plant response rating, Barnyardgrass (barnyardgrass [10]; [29]): 0 | Plant response rating, Barnyardgrass (barnyardgrass [10]; [31]): 0 | Plant response rating, Barnyardgrass (barnyardgrass [10]; 250 g ai/ha, scale 0 to 100): 0 | Crabgrass, Large plant response rating (0 to 100 scale) (crabgrass, large [11]): 100 | Crabgrass, Large plant response rating (crabgrass, large [11]): 100 | Plant response rating, Rice (rice [12]): 0 | Corn plant response rating (corn [13]; [26]): 30 | Corn plant response rating (corn [13]; [27]): 10 | Pigweed plant response rating (pigweed [14]; [30]): 90 | Pigweed plant response rating (pigweed [14]; [26]): 90 | Wheat plant response rating (0 to 100 scale) (wheat [15]): 0 | Crabgrass, Large plant response rating (crabgrass, large [16]; [26]): 80 | Crabgrass, Large plant response rating (crabgrass, large [16]; [27]): 10 | Foxtail, Giant plant response rating (0 to 100 scale) (foxtail, giant [17]): 50 | Foxtail, Giant plant response rating (foxtail, giant [17]): 100 | Plant response rating, Sedge, Umbrella (sedge, umbrella [18]; [28]): 0 | Plant response rating, Sedge, Umbrella (sedge, umbrella [18]; [29]): 60 | Plant response rating, Sedge, Umbrella (sedge, umbrella [18]; [31]): 80 | Plant response rating, Sedge, Umbrella (sedge, umbrella [18]; 250 g ai/ha, scale 0 to 100): 80 | Plant response rating, Sedge, Umbrella (sedge, umbrella [19]): 90 | Morningglory plant response rating (0 to 100 scale) (morningglory [20]): 30 | Corn plant response rating (0 to 100 scale) (corn [21]): 0 | Corn plant response rating (corn [21]): 10 | Plant response rating, Rice (rice [22]; [28]): 0 | Plant response rating, Rice (rice [22]; [29]): 0 | Plant response rating, Rice (rice [22]; [31]): 0 | Plant response rating, Rice (rice [22]; 250 g ai/ha, scale 0 to 100): 0 | Plant response rating, Ducksalad (ducksalad [23]): 95 | Barnyardgrass plant response rating (0 to 100 scale, 0 is no effect, 100 is complete control) (barnyardgrass [24]; 125 g ai/ha, visual injury approx. 10 days after treatment): 0 | Barnyardgrass plant response rating (barnyardgrass [24]; [25]): 80
